The results in this text go back to paper PMC4807864 (The Journal of antibiotics, 2013).

Structures can show the parent of a compound that is named as a salt.

What is called IC50 is the concentration that inhibits the measured activity by half.

One test concerns the target T1, human PPTase (hPPTase) (Homo sapiens, UniProt Q9NRN7).
T1 sequence (Q9NRN7 1-309): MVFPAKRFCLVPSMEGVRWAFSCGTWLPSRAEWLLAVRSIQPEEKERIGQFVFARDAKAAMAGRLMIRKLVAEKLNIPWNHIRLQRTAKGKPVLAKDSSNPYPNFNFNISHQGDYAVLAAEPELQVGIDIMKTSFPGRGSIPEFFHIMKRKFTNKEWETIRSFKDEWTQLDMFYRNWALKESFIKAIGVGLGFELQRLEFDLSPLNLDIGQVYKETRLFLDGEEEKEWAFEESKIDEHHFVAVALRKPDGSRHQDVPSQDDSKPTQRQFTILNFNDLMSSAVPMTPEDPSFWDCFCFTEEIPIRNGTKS
Put plainly: Fluorescence polarization phosphopantetheinylation assay. It counts as biochemical.
Conditions: not given
In general terms: Polarisation of emitted light reports the rotation of a fluorescent probe.
As to `NC(CO)C(=O)NNCc1ccc(O)c(O)c1O` (stereo not drawn) [benserazide HCl, benserazide], the IC50 is more than 100 µM.
On the same count and under the same terms, for `CC(C)(COP(=O)(O)OP(=O)(O)OC[C@H]1O[C@@H](n2cnc3c(N)ncnc32)[C@H](O)[C@@H]1OP(=O)(O)O)[C@@H](O)C(=O)NCCC(=O)NCCS` [coenzyme A] the value was 14 ± 1 µM; for `C[n+]1cc2c3c(ccc2c2ccc4cc5c(cc4c21)OCO5)OCO3` [sanguinarine Cl, sanguinarine], more than 100 µM.

Another test deals with Sfp (Bacillus subtilis, UniProt P39135). Put plainly: SDS-PAGE fluorescent carrier protein labeling follow-up. The following applies: gel analysis (Figure S22). It counts as biochemical, B. subtilis.
Sequence of Sfp (P39135 whole entry): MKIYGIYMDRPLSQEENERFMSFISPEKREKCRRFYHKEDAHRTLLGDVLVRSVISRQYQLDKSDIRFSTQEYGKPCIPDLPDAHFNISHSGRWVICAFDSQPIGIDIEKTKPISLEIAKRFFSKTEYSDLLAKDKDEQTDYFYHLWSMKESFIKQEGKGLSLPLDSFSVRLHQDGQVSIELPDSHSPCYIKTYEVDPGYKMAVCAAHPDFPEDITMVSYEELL
For `CC(C)(C)c1ccc(S(=O)(=O)/C=C/C#N)cc1` [Bay 11-7085], the “Effect on fluorescent labeling of the carrier protein substrate by SDS-PAGE” value is reported as “increase fluorescent labeling”.
Same read-out and setting: next, `NC(N)=Nc1ccc2[nH]c3c(c2c1)C[C@@]1(O)[C@H]2Cc4ccc(O)c5c4[C@@]1(CCN2CC1CC1)[C@H]3O5.O=C(O)C(F)(F)F.O=C(O)C(F)(F)F` [guanidinyl-naltrindole]: “increase fluorescent labeling”; `C[n+]1cc2c3c(ccc2c2ccc4cc5c(cc4c21)OCO5)OCO3` [sanguinarine Cl, sanguinarine]: “inhibitory behavior”.
